What all share (format): functional
Test [1] deals with Mycobacterium tuberculosis. Description: Antimicrobial activity against Mycobacterium tuberculosis H37Rv ATCC 27294 harboring DprE1 Y314H mutant assessed as growth inhibition after 5 days by microdilution method. (Dilution methods test growth across graded concentrations, often in twofold steps.)
In test [2] the test system is Mycobacterium tuberculosis. Description: Antimicrobial activity against Mycobacterium tuberculosis H37Rv ATCC 27294 overexpressing DprE1 assessed as growth inhibition after 5 days by microdilution method. The following applies: H37Rv ATCC 27294, 120 h.
The test system of test [3] is Mycobacterium tuberculosis. The experiment in a line: Antimicrobial activity against Mycobacterium tuberculosis H37Rv ATCC 27294 harboring DprE1 C387S mutant assessed as growth inhibition after 5 days by microdilution method.
The subject of test [4] is Mycobacterium tuberculosis. Description: Antimicrobial activity against Mycobacterium tuberculosis H37Rv ATCC 27294 harboring DprE1 C387G mutant assessed as growth inhibition after 5 days by microdilution method.

Values after ≈ are worked out from the molar mass of the structure shown.

Consider `COc1ncnc(Cn2cc(C(=O)NCCF)c3ncccc32)c1C`, for which the MIC is above 100 µM in test [1], 50 µM (≈ 17.2 µg/mL) in test [2], 3.12 µM (≈ 1.07 µg/mL) in test [3] and 0.78 µM (≈ 0.268 µg/mL) in test [4].
For `COc1ncnc(Cn2cc(C(=O)NCCF)c3ncc(C)cc32)c1C` the same measures were above 200 µM, 6.25 µM (≈ 2.23 µg/mL), 0.39 µM (≈ 0.139 µg/mL) and 0.39 µM (≈ 0.139 µg/mL).
Regarding `COc1ncnc(Cn2cc(C(=O)NCCO)c3ncc(C)cc32)c1C` [TBA-7371], the MIC was above 200 µM in test [1], 100 µM (≈ 35.5 µg/mL) in test [2], 0.39 µM (≈ 0.139 µg/mL) in test [3] and 0.78 µM (≈ 0.277 µg/mL) in test [4].

In general, MIC refers to the lowest concentration that inhibits growth of the organism.

Values taken from ChEMBL document CHEMBL3108774, “Azaindoles: noncovalent DprE1 inhibitors from scaffold morphing efforts, kill Mycobacterium tuberculosis and are efficacious in vivo” (J Med Chem, 2013).
